In the data set the test system is emesis. The conditions noted are these: common marmoset, in vivo, 4 h. The procedure: The study of effect of evocalcet on emesis in common marmoset was performed by referencing a previously reported method. The marmosets (n = 24) used for this study were housed in cages (460 × 600 × 655 mm) with environmental enrichments (wooden perches, swing, and balls) and acclimated for at least 4 weeks. The marmosets were fasted from evening on the day before administration. To confirm the reduction in the serum PTH levels, blood samples (about 300~400 μL, 1.2∼1.6% of total blood volume) were collected from the femoral or saphenous vein without an anesthesia before and at 1 and 4 h after the oral administration of evocalcet (1.5 or 5 μg/kg, n = 3 in each dose) or cinacalcet (300 or 500 μg/kg, n = 3 in each dose) suspended in 0.5% methyl cellulose solution using a metallic gastric zonde. The serum PTH level was measured using a Porcine Intact PTH ELISA kit (Immutopics, Inc., San Clemente, CA, USA). To evaluate the emetic effects in marmosets, evocalcet (50 or 150 μg/kg) or cinacalcet (1500 or 5000 μg/kg) was orally administered (n = 6/drug, dose down titration, n = 12 in total). The observation of emesis was conducted until 4 h after the administration.

The text below walks through data of PMC5882164, “A novel calcimimetic agent, evocalcet (MT-4580/KHK7580), suppresses the parathyroid cell function with little effect on the gastrointestinal tract or CYP isozymes in vivo and in vitro” (PLoS ONE, 2018).

Structures can show the parent of a compound that is named as a salt.

Regarding `C[C@@H](NCCCc1cccc(C(F)(F)F)c1)c1cccc2ccccc12` [cinacalcet, Cinacalcet hydrochloride, reference compound], the Safety margin is given as 3 < X < 10.
